Test results published in patent US11008360B2, “Indoleacetic acid derivative and preparation method and pharmaceutical use thereof” (Institute of Chinese Materia Medica, China Academy of …, priority 2017, dated 2021).
Marks after values point to notes of the source that are not given here.

Experiments:
[1] = test system: tracheal phenol red excretion amount in mice; assay: Phlegm-reducing effect (tracheal phenol red excretion); assay type: in vivo, Kunming mice; settings: x ± s, n=16
Excerpt: Test animals: Kunming mice (body weight 18-22 g, half male and half female), purchased from Beijing Vital River Laboratory Animal Technology Co., Ltd. Test reagent: Ammonium chloride (Guangzhou Chemical Reagent Factory). The devices were the same as in Test Example 1. According to the method of LI Yikui's phlegm-reducing test, the mice were fed normally for 3 days, and then randomly grouped into blank control group, compound of the present invention group, and ammonium chloride-positive control group. […] The phenol red excretion amount was calculated from the phenol red standard curve, and the significance of the difference between the groups was compared. Statistical method: data analysis of the experimental data was carried out with SPSS 10.0 statistical software, and t-test was used for comparison between groups.

[2] = test system: citric acid-induced cough in guinea pigs; assay: Citric acid-induced cough test; assay type: in vivo; settings: x ± s
Excerpt: Test animals: Guinea pigs (body weight 180-220 g, half male and half female), purchased from Beijing Vital River Laboratory Animal Technology Co., Ltd.
(§1) Test reagent: Codeine phosphate (Europharm Laboratoires Co., Ltd.).
The devices are the same as in Test Example 1.
The guinea pigs were adaptively fed for 1 day followed by preliminary screening.
The guinea pigs were placed one by one in an inverted 5 L sealed glass bell jar, and treated by a constant pressure spray stimulation (17.5% citric acid solution) for one minute. The number of coughs within 5 minutes from the spray was recorded, and the guinea pigs which coughed more than 10 times were chosen as qualified test animals. The qualified guinea pigs were randomly grouped into blank control group, compound of the present invention group, and codeine phosphate-positive control group. The above groups were intragastrically administrated with the drugs according to body weight, and the blank control group was administrated with equal volume of distilled water. The intragastrical administration was carried out for five consecutive days. The guinea pigs were placed in an inverted 5 L sealed glass bell jar for one hour after the last administration, and treated by the nebulizer for 30 seconds. The latentperiod of the cough of the guinea pigs (the time from starting spraying of 17.5% citric acid to coughing starting) and the number of coughs within 5 minutes were observed.
(§2) Statistical method: data analysis of the experimental data was carried out with SPSS 10.0 statistical software, and t-test was used for comparison between groups.

[3] = test system: aqueous ammonia-induced cough in mice; assay: Aqueous ammonia-induced cough test; assay type: in vivo, Kunming mice; settings: x ± s, n=16
Excerpt: Test animals: Kunming mice (body weight 18-22 g, half male and half female), purchased from Beijing Vital River Laboratory Animal Technology Co., Ltd., with Certificate No.: SCXK-(Beijing)2012-001.
as §1
Device: YC-Y800 Medical ultrasonic nebulizer (Beijing Yadu Technology Co., Ltd., with Beijing Pharmaceutical Supervision Certificate No.: Beijing 99 No. 223145); UV-2450 UV-visible spectrophotometer (Shimadzu Co., Japan); UX420S Animal balance (Shimadzu Co., Japan); and milli electronic balance (Sartorius Co., Germany).
The mice were adaptively fed for 3 days followed by screening. The ultrasonic nebulizer was preheated, and added with 40 ml of fresh aqueous ammonia solution (12.5%). The mice were placed in 1000 ml beaker. The beaker's mouth was sealed with a plastic wrap with two holes opened (one for inserting the ultrasonic atomizer outlet tube, and the other for ventilation). Ammonia was continuously introduced by the ultrasonic atomizer at its minimal power for 60 seconds, followed by stopping the ultrasonic atomizer immediately. The plastic wrap was quickly opened to allow the ammonia to diffuse naturally. Mice which coughed for less than 10 times or more than 80 times within three minutes were excluded. The qualified mice were randomly grouped into blank control group, compound of the present invention group, and codeine phosphate-positive control group. The above groups were intragastrically administrated with the drugs according to body weight, and the blank control group was administrated with equal volume of distilled water. The administration was carried out once a day for five consecutive days. The mice were placed one by one in an inverted 5 L sealed glass bell jar for one hour after the last administration, and treated by a constant pressure ammonia spray stimulation for 15 seconds (10 mL of ammonia spray/time for one mouse, and changed each time). After the stimulation stopped, the mice were taken out to observe the latentperiod of the cough of the mice (the time from spraying starting to coughing starting) and the number of coughs within 2 minutes (cough was identified by severely contracting the abdominal muscles and opening the mouth, with a slight cough sound sometimes).
as §2

[4] = positive control dose 15 mL·kg^-1 intragastric once a day for five days
[5] = 20 mg·kg^-1 intragastric for five days, 17.5% citric acid spray 1 h after last administration
[6] = 20 mg·kg^-1 intragastric for five days, phenol red i.p. 30 min after last administration
[7] = 20 mg·kg^-1 intragastric once a day for five days, ammonia spray 1 h after last administration

Compound: Cl.N [Ammonium chloride, reference compound]
- Tracheal phenol red excretion amount ([1]; positive control dose 1000 mg·kg^-1 intragastric for five days): 1.068 ± 0.224 mg/L

Compound: COc1ccc2c3c1O[C@H]1[C@@H](O)C=C[C@H]4[C@@H](C2)N(C)CC[C@@]341 [Codeine phosphate, reference compound]
- Latentperiod ([2]; positive control dose 15 mL·kg^-1 intragastric for five days, n=18): 107 ± 41 s
- Latentperiod [3, 4]: 48.3 ± 5.9 s
- Number of coughs [3, 4]: 14.2 ± 6.5 times/2 min

Compound: O=C(O)C[C@@H](NC(=O)Cc1cn([C@@H]2O[C@H](CO)[C@@H](O)[C@H](O)[C@H]2O)c2ccccc12)C(=O)O [Compound 1, (2-(1-((2R,3R,4S,5S,6R)-3,4,5-trihydroxy-6-(hydroxymethyl)tetrahydro-2H-pyran-2-yl)-1H-indol-3-yl)acetyl)-D-aspartic acid]
- Latentperiod [2, 5]: 147 ± 89 s
- Tracheal phenol red excretion amount [1, 6]: 1.125 ± 0.129 mg/L
- Latentperiod [3, 7]: 45.8 ± 8.2 s
- Number of coughs [3, 7]: 19.1 ± 10.7 times/2 min

Compound: O=C(O)CC[C@@H](NC(=O)Cc1cn([C@@H]2O[C@H](CO)[C@@H](O)[C@H](O)[C@H]2O)c2ccccc12)C(=O)O [Compound 2, (2-(1-((2R,3R,4S,5S,6R)-3,4,5-trihydroxy-6-(hydroxymethyl)tetrahydro-2H-pyran-2-yl)-1H-indol-3-yl)acetyl)-D-glutamic acid]
- Latentperiod [2, 5]: 98 ± 59 s
- Tracheal phenol red excretion amount [1, 6]: 0.988 ± 0.211 mg/L
- Latentperiod [3, 7]: 48.5 ± 9.4 s
- Number of coughs [3, 7]: 17.3 ± 4.6 times/2 min

Compound: Cc1ccc2c(c1)c(CC(=O)N[C@H](CC(=O)O)C(=O)O)cn2[C@@H]1O[C@H](CO)[C@@H](O)[C@H](O)[C@H]1O [Compound 3, (2-(5-methyl-1-((2R,3R,4S,5S,6R)-3,4,5-trihydroxy-6-(hydroxymethyl)tetrahydro-2H-pyran-2-yl)-1H-indol-3-yl)acetyl)-D-aspartic acid]
- Latentperiod [2, 5]: 128 ± 65 s
- Tracheal phenol red excretion amount [1, 6]: 0.971 ± 0.114 mg/L
- Latentperiod [3, 7]: 38.1 ± 5.3 s
- Number of coughs [3, 7]: 20.7 ± 5.2 times/2 min

Compound: COc1ccc2c(c1)c(CC(=O)N[C@H](CC(=O)O)C(=O)O)cn2[C@@H]1O[C@H](CO)[C@@H](O)[C@H](O)[C@H]1O [Compound 4]
- Latentperiod [2, 5]: 120 ± 55 s
- Tracheal phenol red excretion amount [1, 6]: 1.072 ± 0.221 mg/L
- Latentperiod [3, 7]: 40.3 ± 5.5 s
- Number of coughs [3, 7]: 18.5 ± 4.3 times/2 min

Compound: O=C(O)C[C@@H](NC(=O)Cc1cn([C@@H]2O[C@H](CO)[C@@H](O)[C@H](O)[C@H]2O)c2ccc(Cl)cc12)C(=O)O [Compound 5, (2-(5-chloro-1-((2R,3R,4S,5S,6R)-3,4,5-trihydroxy-6-(hydroxymethyl)tetrahydro-2H-pyran-2-yl)-1H-indol-3-yl)acetyl)-D-aspartic acid]
- Latentperiod [2, 5]: 110 ± 32 s
- Tracheal phenol red excretion amount [1, 6]: 0.831 ± 0.107 mg/L
- Latentperiod [3, 7]: 42.6 ± 11.2 s
- Number of coughs [3, 7]: 19.6 ± 5.1 times/2 min

Compound: O=C(O)C[C@@H](NC(=O)Cc1cn([C@@H]2O[C@H](CO)[C@@H](O)[C@H](O)[C@H]2O)c2ccc(Br)cc12)C(=O)O [Compound 6, (2-(5-bromo-1-((2R,3R,4S,5S,6R)-3,4,5-trihydroxy-6-(hydroxymethyl)tetrahydro-2H-pyran-2-yl)-1H-indol-3-yl)acetyl)-D-aspartic acid]
- Latentperiod [2, 5]: 127 ± 52 s
- Tracheal phenol red excretion amount [1, 6]: 0.888 ± 0.145 mg/L
- Latentperiod [3, 7]: 40.7 ± 5.2 s
- Number of coughs [3, 7]: 21.8 ± 7.3 times/2 min

Compound: Cc1cccc2c(CC(=O)N[C@H](CC(=O)O)C(=O)O)cn([C@@H]3O[C@H](CO)[C@@H](O)[C@H](O)[C@H]3O)c12 [Compound 7]
- Latentperiod [2, 5]: 130 ± 22 s
- Tracheal phenol red excretion amount [1, 6]: 0.956 ± 0.270 mg/L
- Latentperiod [3, 7]: 42.1 ± 7.2 s
- Number of coughs [3, 7]: 18.6 ± 8.5 times/2 min

Compound: COc1cccc2c(CC(=O)N[C@H](CC(=O)O)C(=O)O)cn([C@@H]3O[C@H](CO)[C@@H](O)[C@H](O)[C@H]3O)c12 [Compound 8]
- Latentperiod [2, 5]: 110 ± 32 s
- Tracheal phenol red excretion amount [1, 6]: 1.142 ± 0.132 mg/L
- Latentperiod [3, 7]: 39.6 ± 5.5 s
- Number of coughs [3, 7]: 19.2 ± 4.7 times/2 min

Compound: Cc1ccc2c(c1)c(CC(=O)N[C@H](CCC(=O)O)C(=O)O)cn2[C@@H]1O[C@H](CO)[C@@H](O)[C@H](O)[C@H]1O [Compound 9]
- Latentperiod [2, 5]: 121 ± 47 s
- Tracheal phenol red excretion amount [1, 6]: 1.089 ± 0.139**^1 mg · L^−1
- Latentperiod [3, 7]: 38.1 ± 4.7 s
- Number of coughs [3, 7]: 23.8 ± 5.1 times/2 min

Compound: O=C(O)CC[C@@H](NC(=O)Cc1cn([C@@H]2O[C@H](CO)[C@@H](O)[C@H](O)[C@H]2O)c2ccc(Cl)cc12)C(=O)O [Compound 10]
- Latentperiod [2, 5]: 139 ± 41 s
- Tracheal phenol red excretion amount [1, 6]: 0.962 ± 0.101 mg/L
- Latentperiod [3, 7]: 39.4 ± 4.1 s
- Number of coughs [3, 7]: 19.4 ± 6.3 times/2 min
